Results on 20 compounds are retold here after patent US10221139B2, “Inhibitors of histone demethylases” (Gilead Sciences, Inc., priority 2012, dated 2019).

Assay [1] addresses T1, GASC1 (KDM4C) (Homo sapiens, UniProt Q9H3R0).
T1 construct: Full length; host or cells: U2OS
T1 sequence (Q9H3R0 1-1056): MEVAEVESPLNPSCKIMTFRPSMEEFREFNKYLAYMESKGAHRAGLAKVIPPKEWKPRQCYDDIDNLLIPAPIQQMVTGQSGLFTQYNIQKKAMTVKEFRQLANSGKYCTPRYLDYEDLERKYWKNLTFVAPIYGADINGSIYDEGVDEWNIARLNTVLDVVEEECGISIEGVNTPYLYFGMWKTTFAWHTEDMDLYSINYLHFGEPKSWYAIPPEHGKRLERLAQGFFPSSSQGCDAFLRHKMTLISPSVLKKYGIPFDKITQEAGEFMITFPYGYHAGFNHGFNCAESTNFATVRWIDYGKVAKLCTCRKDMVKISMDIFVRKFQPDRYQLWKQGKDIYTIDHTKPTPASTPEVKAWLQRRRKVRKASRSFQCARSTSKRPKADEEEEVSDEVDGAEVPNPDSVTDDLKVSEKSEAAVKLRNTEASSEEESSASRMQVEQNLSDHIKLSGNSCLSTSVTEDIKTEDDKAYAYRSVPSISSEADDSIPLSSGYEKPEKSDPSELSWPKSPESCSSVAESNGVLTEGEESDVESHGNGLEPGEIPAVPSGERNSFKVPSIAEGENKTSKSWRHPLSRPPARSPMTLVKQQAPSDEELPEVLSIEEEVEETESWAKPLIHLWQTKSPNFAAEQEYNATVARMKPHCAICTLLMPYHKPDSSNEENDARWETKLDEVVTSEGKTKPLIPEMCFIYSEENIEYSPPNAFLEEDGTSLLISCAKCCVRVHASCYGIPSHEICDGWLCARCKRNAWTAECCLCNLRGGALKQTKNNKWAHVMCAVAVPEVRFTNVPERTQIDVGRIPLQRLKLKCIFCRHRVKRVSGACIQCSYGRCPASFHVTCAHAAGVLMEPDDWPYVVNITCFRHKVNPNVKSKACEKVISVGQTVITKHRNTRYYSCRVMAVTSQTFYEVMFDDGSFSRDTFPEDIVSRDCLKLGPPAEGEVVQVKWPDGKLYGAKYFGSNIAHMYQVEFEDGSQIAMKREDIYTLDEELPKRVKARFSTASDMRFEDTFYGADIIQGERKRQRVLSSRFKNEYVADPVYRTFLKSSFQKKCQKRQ
As to the kind of experiment: Immunofluorescence assay in U2OS cells transfected with pCMVHA JMJD2C (H3K9me3 mark). Type of assay: cell-based. The note with it: 20 hours. The procedure: (§1) U2OS cells were seeded 24 hours before transfection. Transfection was performed with Fugene HD transfection reagent as recommended by the manufacturer. 6 hours after transfection, the cells were harvested and seeded into multi well plates into media containing compound. The media used was DMEM containing 5% FBS and pen/strep. 20 hours after incubation of cells with compounds, the cells were washed once in PBS, harvested by fixation with formaldehyde 4% aqueous solution, and washed 2 times in PBS. Subsequently, the cells were permeabilized in PBS with 0.2% Triton X-100 for 10 min at room temperature. Blocking was performed in PBS with 0.2% Triton X-100 and 5% FBS for 45 min at room temperature. The cells were incubated with primary antibodies diluted 1 μg/ml in blocking solution over night at 4° C. The primary antibodies used in the assays were HA.11 (Covance, MMS-101P) and the antibody detecting the mark specified in the Table 6 below. After incubation with primary antibodies, the cells were washed 3 times with PBS, incubated with secondary antibodies diluted 1:1000 (Alexa fluor 594 goat anti rabbit IgG, Invitrogen, A11012; Alexa flour 488 donkey anti mouse IgG, Invitrogen, A21202) and Hoechst, 20 μg/ml (Sigma, 33342) in blocking solution, and washed again 3 times with PBS. Finally, PBS was added and high throughput imaging and analysis were performed by an IN Cell Analyzer 1000 (GE Healthcare). The robot software analyzed individual cells and divided these into HA^+ (transfected cells) and HA^− (non-transfected cells). The IC50 values in Table 7 below were based on an average measure of the staining of the mark specified in the Table 6 below in the transfected cells.

Assay [2] deals with T2, PLU1 (KDM5B) (Homo sapiens, UniProt Q9UGL1).
T2 construct: (1-752); host or cells: U2OS
T2 sequence (Q9UGL1 1-752): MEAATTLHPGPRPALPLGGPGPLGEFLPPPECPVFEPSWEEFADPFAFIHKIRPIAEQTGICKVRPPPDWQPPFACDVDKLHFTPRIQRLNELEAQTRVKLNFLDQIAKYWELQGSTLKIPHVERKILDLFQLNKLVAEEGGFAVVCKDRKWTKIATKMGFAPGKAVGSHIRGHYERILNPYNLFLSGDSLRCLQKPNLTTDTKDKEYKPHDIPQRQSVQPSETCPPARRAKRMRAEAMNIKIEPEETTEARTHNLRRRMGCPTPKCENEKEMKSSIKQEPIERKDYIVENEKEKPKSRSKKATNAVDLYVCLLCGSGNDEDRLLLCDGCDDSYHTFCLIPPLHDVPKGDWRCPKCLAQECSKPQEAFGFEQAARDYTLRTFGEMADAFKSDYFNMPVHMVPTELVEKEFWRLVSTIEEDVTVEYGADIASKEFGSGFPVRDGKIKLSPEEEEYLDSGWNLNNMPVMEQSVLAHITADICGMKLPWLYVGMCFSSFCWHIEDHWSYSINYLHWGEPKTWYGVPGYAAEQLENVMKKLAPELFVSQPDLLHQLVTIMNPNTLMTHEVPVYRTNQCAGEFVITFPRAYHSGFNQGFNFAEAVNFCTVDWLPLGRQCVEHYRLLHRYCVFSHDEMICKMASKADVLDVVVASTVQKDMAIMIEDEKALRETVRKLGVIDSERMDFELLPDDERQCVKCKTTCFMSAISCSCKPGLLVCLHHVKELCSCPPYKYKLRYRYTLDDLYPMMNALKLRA
As to the kind of experiment: Immunofluorescence assay in U2OS cells transfected with pCMVHA PLU1 (H3K4me2 mark). The conditions noted are these: 20 hours. The assay is classed as cell-based. The procedure: as §1

For the compound `CCCCN(C)C(=O)CNCc1cc(C(=O)O)ccn1` [drawing 306, 2-[({[butyl(methyl)carbamoyl]methyl}amino)methyl] pyridine-4-carboxylic acid], the IC50 in assay [1] is 1 to 50 µM; in assay [2], more than 50 µM.

As to `Cn1c(CNCc2cc(C(=O)O)ccn2)nc2ccccc21` [drawing 307, 2-({[(1-methyl-1H-1,3-benzodiazol-2-yl)methyl)amino}methyl) pyridine-4-carboxylic acid], the IC50 in assay [1] is more than 50 µM; in assay [2], 1 to 50 µM.

Take `COCCN1CCN(C(=O)CNCc2cc(C(=O)O)ccn2)CC1` [drawing 308, 2-[({2-[4-(2-methoxyethyl)piperazin-1-yl]-2-oxoethyl}amino)methyl] pyridine-4-carboxylic acid]: the IC50 in assay [1] and in assay [2] was more than 50 µM each time.

On to `C=CCN(CC=C)C(=O)CNCc1cc(C(=O)O)ccn1` [drawing 309, 2-[({[bis(prop-2-en-1-yl)carbamoyl]methyl}amino)methyl]pyridine-4-carboxylic acid], for which the IC50 in assay [1] and in assay [2] was 1 to 50 µM in each case.

For `O=C(O)c1ccnc(CNCCCNCCCN2CCCC2)c1` [drawing 310, 2-{[(3-{[3-(pyrrolidin-1-yl)propyl]amino}propyl)amino]methyl}pyridine-4-carboxylic acid], the IC50 in assay [1] and in assay [2] was more than 50 µM throughout.

As to `CN(CCCc1nccn1C)C(=O)CNCc1cc(C(=O)O)ccn1` [drawing 312, 2-{[({methyl[3-(1-methyl-1H-imidazol-2-yl)propyl]carbamoyl}methyl)amino]methyl}pyridine-4-carboxylic acid], the IC50 in assay [1] and in assay [2] was 1 to 50 µM in each case.

Take `CCN1CCCC1CNC(=O)CNCc1cc(C(=O)O)ccn1` (stereo not shown) [drawing 313, 2-{[({[(1-ethylpyrrolidin-2-yl)methyl]carbamoyl}methyl)amino]methyl}pyridine-4-carboxylic acid]: the figures for the IC50 in assay [1] and in assay [2] were more than 50 µM and 1 to 50 µM, respectively.

With `CN(Cc1ccnn1C)C(=O)CNCc1cc(C(=O)O)ccn1` [drawing 314, 2-{[({methyl[(1-methyl-1H-pyrazol-5-yl)methyl]carbamoyl}methyl)amino]methyl}pyridine-4-carboxylic acid], the IC50 in assay [1] and in assay [2] was more than 50 µM throughout.

Consider `O=C(O)c1ccnc(CN[C@@H]2CCN(CCCc3ccccc3)C2)c1` [drawing 315, 2-({[(3R)-1-(3-phenylpropyl)pyrrolidin-3-yl]amino}methyl)pyridine-4-carboxylic acid], for which the IC50 in assay [1] was more than 50 µM; in assay [2], 1 to 50 µM.

Consider `O=C(CNCc1cc(C(=O)O)ccn1)NC1CCN(CCCc2ccccc2)CC1` [drawing 317, 2-{[({[1-(3-phenylpropyl)piperidin-4-yl]carbamoyl}methyl)amino]methyl}pyridine-4-carboxylic acid], for which the IC50 in assay [1] and in assay [2] was more than 50 µM throughout.

For the compound `O=C(CNCc1cc(C(=O)O)ccn1)NC1CCN(Cc2ccco2)CC1` [drawing 318, 2-{[({[1-(furan-2-ylmethyl)piperidin-4-yl]carbamoyl}methyl)amino]methyl}pyridine-4-carboxylic acid], the IC50 in assay [1] and in assay [2] was more than 50 µM throughout.

Consider `O=C(CNCc1cc(C(=O)O)ccn1)NC1CCN(Cc2ccc(-c3ccccc3)o2)CC1` [drawing 319, 2-({[({1-[(5-phenylfuran-2-yl)methyl]piperidin-4-yl}carbamoyl)methyl]amino}methyl)pyridine-4-carboxylic acid], for which the IC50 in assay [1] and in assay [2] was more than 50 µM each time.

For `CN(CCCNCc1cc(C(=O)O)ccn1)Cc1ccccc1F` [drawing 322, 2-{[(3-{[(2-fluorophenyl)methyl](methyl)amino}propyl)amino]methyl}pyridine-4-carboxylic acid], the IC50 in assay [1] was more than 50 µM; in assay [2] it was 1 to 50 µM.

On to `O=C(O)c1ccnc(CNCCCN2CCCC2)c1` [drawing 325, 2-({[3-(pyrrolidin-1-yl)propyl]amino}methyl)pyridine-4-carboxylic acid], for which the IC50 in assay [1] and in assay [2] was 1 to 50 µM in each case.

With `COC(=O)c1ccnc(CNCCCN2CCCC2)c1` [drawing 326, methyl 2-({[3-(pyrrolidin-1-yl)propyl]amino}methyl) pyridine-4-carboxylate], the IC50 in assay [1] and in assay [2] was 1 to 50 µM each time.

For the compound `CCN(CC)CCCCNCc1cc(C(=O)O)ccn1` [drawing 327, 2-({[4-(diethylamino)butyl]amino}methyl)pyridine-4-carboxylic acid], the IC50 in assay [1] and in assay [2] was 1 to 50 µM in each case.

In the case of `CCN(CC)CCCCNCc1cc(C(=O)Oc2ccc(OC)cc2)ccn1` [drawing 329, 4-methoxyphenyl 2-({[4-(diethylamino)butyl]amino}methyl)pyridine-4-carboxylate], the IC50 is 1 to 50 µM in assay [1] and less than 1 µM in assay [2].

`CCOC(=O)c1ccccc1OC(=O)c1ccnc(CNCCCCN(CC)CC)c1` [drawing 330, 2-(ethoxycarbonyl) phenyl 2-({[4-(diethylamino)butyl]amino}methyl)pyridine-4-carboxylate]: the half-maximal inhibitory concentration (IC50) is 1 to 50 µM in assay [1] and less than 1 µM in assay [2].

`CCN(CC)CCCCNCc1cc(C(=O)OCCN(C)C)ccn1` [drawing 331, 2-(dimethylamino) ethyl 2-({[4-(diethylamino)butyl]amino}methyl)pyridine-4-carboxylate]: the IC50 in assay [1] and in assay [2] was 1 to 50 µM throughout.

In the case of `CCN(CC)CCCCNCc1cc(C(=O)OCCCN(C)C)ccn1` [drawing 332, 3-(dimethylamino) propyl 2-({[4-(diethylamino)butyl]amino}methyl)pyridine-4-carboxylate], the IC50 in assay [1] and in assay [2] was 1 to 50 µM throughout.

The term IC50 denotes the concentration that inhibits the measured activity by half. High values mean a need for much substance, low ones inhibition by little substance.
